Source: US8084479B2, “Thiazole compounds and methods of use” (Amgen Inc., priority 2006, dated 2011)
pIC50: −log10 of the molar value.

Each compound was assayed against PKBα (Homo sapiens, UniProt P31749) (assay: PKB kinase assay (P33-labeled ATP, peptide substrate, filter plate)). Settings: PKBα enzyme (full length or kinase domain with pleckstrin domain deleted).
Format: biochemical
From the text: The kinase assay for evaluating PKB activity comprises active PKB enzymes, a PKB specific substrate, and P^33-labeled ATP. […] The phosphorylated substrate was captured by a phosphocellulose membrane filter plate (MLLIPORE) and measured by a Wallac Microbeta liquid scintillation counter (Perkin Elmer).

PKBα, sequence (P31749 118-480 limits assumed): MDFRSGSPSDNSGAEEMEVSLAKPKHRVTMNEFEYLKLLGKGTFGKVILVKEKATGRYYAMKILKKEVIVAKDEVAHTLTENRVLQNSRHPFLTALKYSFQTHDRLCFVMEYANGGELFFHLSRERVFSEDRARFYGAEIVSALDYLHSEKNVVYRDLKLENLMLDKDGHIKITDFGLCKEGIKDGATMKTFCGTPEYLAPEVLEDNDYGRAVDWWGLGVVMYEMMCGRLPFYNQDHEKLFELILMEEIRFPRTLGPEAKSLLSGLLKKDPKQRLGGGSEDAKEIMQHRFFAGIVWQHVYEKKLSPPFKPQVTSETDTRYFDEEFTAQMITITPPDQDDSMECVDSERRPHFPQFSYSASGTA

| SMILES | pIC50 |
| --- | --- |
| N[C@H](CNc1ncc(-c2ccc3cnccc3c2)s1)Cc1ccc(C(F)(F)F)c(O)c1 [Example 208, 5-((S)-2-amino-3-(5-(isoquinolin-6-yl)thiazol-2-ylamino)propyl)-2-(trifluoromethyl)phenol] | > 7.30 |
| N[C@H](CNc1ncc(-c2nc3ccncc3s2)s1)Cc1ccc(C(F)(F)F)cc1 [Example 32, N—((S)-2-amino-3-(4-(trifluoromethyl)phenyl)propyl)-5-(thiazolo[5,4-c]pyridin-2-yl)thiazol-2-amine] | > 7.30 |
| N[C@H](CNc1nc(C#CCO)c(-c2ccc3c(c2)CC(=O)N3)s1)Cc1ccc(C(F)(F)F)cc1 [Example 145, 5-(2-((S)-2-amino-3-(4-(trifluoromethyl)phenyl)propylamino)-4-(3-hydroxyprop-1-ynyl)thiazol-5-yl)indolin-2-one] | > 7.30 |
| N[C@H](CNc1nc(-c2ccccc2F)c(-c2ccc3c(c2)CC(=O)N3)s1)Cc1ccc(C(F)(F)F)cc1 [Example 107, 5-(2-((S)-2-Amino-3-(4-(trifluoromethyl)phenyl)-propylamino)-4-(2-fluorophenyl)thiazol-5-yl)indolin-2-one] | 5.00 to 6.00 |
| C[C@@H](c1ccc(C(F)(F)F)cc1)[C@H](N)CNc1ncc(-c2ccc3cnccc3c2)s1 [Example 110, N-((2S,3S)-2-Amino-3-(4-(trifluoromethyl)phenyl)butyl)-5-(isoquinolin-6-yl)thiazol-2-amine] | > 7.30 |
| N[C@H](CNc1ncc(-c2ccc3cncnc3c2)s1)Cc1ccc(C(F)(F)F)cc1 [Example 253, N—((S)-2-Amino-3-(4-(trifluoromethyl)phenyl)propyl)-5-(quinazolin-7-yl)thiazol-2-amine] | > 7.30 |
| N[C@H](CNc1ncc(-c2ccc3c(c2)CC(=O)N3)s1)Cc1ccc(OCCCCl)cc1 [Example 94, 5-(2-((S)-2-Amino-3-(4-(3-chloropropoxy)phenyl)propylamino)thiazol-5-yl)indolin-2-one] | 5.00 to 6.00 |
| Cc1n[nH]c2ccc(-c3sc(NC[C@@H](N)Cc4ccc(C(F)(F)F)cc4)nc3C#CCO)cc12 [Example 149, 3-(2-((S)-2-amino-3-(4-(trifluoromethyl)phenyl)propylamino)-5-(3-methyl-1H-indazol-5-yl)thiazol-4-yl)prop-2-yn-1-ol] | > 7.30 |
| N[C@H](CNc1ncc(-c2ccc3c(c2)CC(=O)N3)s1)Cc1ccc(O)cc1 [Example 192, 5-(2-((S)-2-amino-3-(4-hydroxyphenyl)propylamino)thiazol-5-yl)indolin-2-one] | 5.00 to 6.00 |
| N[C@H](CNc1nc(C2CCCO2)c(-c2ccc3cnccc3c2)s1)Cc1ccc(C(F)(F)F)cc1 (stereo partly drawn) [Example 198, N—((S)-2-Amino-3-(4-(trifluoromethyl)phenyl)propyl)-5-(isoquinolin-6-yl)-4-(tetrahydrofuran-2-yl)thiazol-2-amine] | > 7.30 |
| N[C@H](CNc1ncc(-c2cc(F)c3c(c2)CC(=O)N3)s1)Cc1ccc(C(F)(F)F)nc1 [Example 221, 5-(2-((S)-2-amino-3-(6-(trifluoromethyl)pyridin-3-yl)propylamino)thiazol-5-yl)-7-fluoroindolin-2-one] | > 7.30 |
| CCc1nc(NC[C@@H](N)Cc2ccc(C(F)(F)F)cc2)sc1-c1nc2ccncc2s1 [Example 23, N—((S)-2-amino-3-(4-(trifluoromethyl)phenyl)propyl)-4-ethyl-5-(thiazolo[5,4-c]pyridin-2-yl)thiazol-2-amine] | 6.00 to 7.30 |
| N[C@H](CNc1ncc(-c2ccc3c(c2)CCC(=O)N3)s1)Cc1ccc(C(F)(F)F)cc1 [Example 36, 6-(2-((S)-2-amino-3-(4-(trifluoromethyl)phenyl)propylamino)thiazol-5-yl)-3,4-dihydroquinolin-2(1H)-one] | 5.00 to 6.00 |
| N[C@H](CNc1ncc(-c2ccc3c(c2)CNC3=O)s1)Cc1ccc(C(F)(F)F)cc1 [Example 240, 5-(2-((S)-2-amino-3-(4-(trifluoromethyl)phenyl)propylamino)thiazol-5-yl)isoindolin-1-one] | 6.00 to 7.30 |
| N[C@H](CNc1ncc(-c2ccc3c(c2)CC(=O)N3)s1)Cc1ccc(Cl)s1 [Example 212, 5-(2-((S)-2-amino-3-(5-chlorothiophen-2-yl)propylamino)thiazol-5-yl)indolin-2-one] | 6.00 to 7.30 |

More lines, now with the values ahead:

| pIC50 | SMILES |
| --- | --- |
| 5.00 to 6.00 | COCc1nc(N(C[C@@H](N)Cc2cccc(Cl)c2)C(C)=O)sc1-c1nc2ccncc2s1 [Example 17, N—((S)-2-amino-3-(3-chlorophenyl)propyl)-N-(4-(methoxymethyl)-5-(thiazolo[5,4-c]pyridin-2-yl)thiazol-2-yl)acetamide] |
| 6.00 to 7.30 | N[C@H](CNc1nc(-c2cccnc2)c(-c2ccc3cnccc3c2)s1)Cc1ccc(C(F)(F)F)cc1 [Example 104, N—((S)-2-Amino-3-(4-(trifluoromethyl)phenyl)propyl)-5-(isoquinolin-6-yl)-4-(pyridin-3-yl)thiazol-2-amine] |
| > 7.30 | Cn1c(=O)[nH]c2ccc(-c3cnc(NC[C@@H](N)Cc4ccc(C(F)(F)F)cc4)s3)cc21 [Example 57, 6-(2-((S)-2-amino-3-(4-(trifluoromethyl)phenyl)propylamino)thiazol-5-yl)-1-methyl-1H-benzo[d]imidazol-2(3H)-one] |
| > 7.30 | CC(O)C#Cc1nc(NC[C@@H](N)Cc2ccc(C(F)(F)F)cc2)sc1-c1ccc2cnccc2c1 (stereo partly drawn) [Example 141, 4-(2-((S)-2-amino-3-(4-(trifluoromethyl)phenyl)propylamino)-5-(isoquinolin-6-yl)thiazol-4-yl)but-3-yn-2-ol] |
| 6.00 to 7.30 | C[C@@H](c1ccc(C(F)(F)F)cc1)[C@H](N)CNc1ncc(-c2cnc3c(c2)CC(=O)N3)s1 [Example 228, 5-(2-((2S,3S)-2-amino-3-(4-(trifluoromethyl)phenyl)butylamino)thiazol-5-yl)-1H-pyrrolo[2,3-b]pyridin-2(3H)-one] |
| 6.00 to 7.30 | N[C@H](CNc1nc(-c2ccco2)c(-c2ccc3cnccc3c2)s1)Cc1ccc(C(F)(F)F)cc1 [Example 8, N—((S)-2-amino-3-(4-(trifluoromethyl)phenyl)propyl)-4-(furan-2-yl)-5-(isoquinolin-6-yl)thiazol-2-amine] |
| 6.00 to 7.30 | C[C@@H](Nc1ncc(-c2ccc3[nH]c(=O)n(C)c3c2)s1)[C@@H](N)Cc1ccc(C(F)(F)F)cc1 [Example 232, 6-(2-((2R,3S)-3-amino-4-(4-(trifluoromethyl)phenyl)butan-2-ylamino)thiazol-5-yl)-1-methyl-1H-benzo[d]imidazol-2(3H)-one] |
| > 7.30 | CCC[C@@H](c1ccc(C(F)(F)F)cc1)[C@H](N)CNc1ncc(-c2ccc3cnccc3c2)s1 [Example 157, N-((2S,3S)-2-amino-3-(4-(trifluoromethyl)phenyl)hexyl)-5-(isoquinolin-6-yl)thiazol-2-amine] |
| 6.00 to 7.30 | N[C@H](CNc1ncc(-c2ccc3cn[nH]c3c2)s1)Cc1ccc(C(F)(F)F)cc1 [Example 48, N—((S)-2-amino-3-(4-(trifluoromethyl)phenyl)propyl)-5-(1H-indazol-6-yl)thiazol-2-amine] |
| 5.00 to 6.00 | Cn1c(=O)[nH]c2ccc(-c3sc(NC[C@@H](N)Cc4ccc(F)cc4)nc3-c3ccccc3F)cc21 [Example 250, 6-(2-((S)-2-amino-3-(4-fluorophenyl)propylamino)-4-(2-fluorophenyl)thiazol-5-yl)-1-methyl-1H-benzo[d]imidazol-2(3H)-one] |
| > 7.30 | COCc1nc(NC[C@@H](N)Cc2ccc(C(F)(F)F)cc2)sc1-c1ccc2[nH]ncc2c1 [Example 14, N—((S)-2-amino-3-(4-(trifluoromethyl)phenyl)propyl)-5-(1H-indazol-5-yl)-4-(methoxymethyl)thiazol-2-amine] |
| > 7.30 | CC(O)C#Cc1nc(NC[C@@H](N)Cc2ccc(C(F)(F)F)cc2)sc1-c1ccc2c(c1)CC(=O)N2 (stereo partly drawn) [Example 144, 5-(2-((S)-2-amino-3-(4-(trifluoromethyl)phenyl)propylamino)-4-(3-hydroxybut-1-ynyl)thiazol-5-yl)indolin-2-one] |
| > 7.30 | NC(CNc1ncc(-c2ccc3c(c2)CC(=O)N3)s1)Cc1ccc(OC(F)(F)F)cc1 (stereo not drawn) [Example 188, 5-(2-(-2-amino-3-(4-(trifluoromethoxy)phenyl)propylamino)thiazol-5-yl)indolin-2-one] |
| 6.00 to 7.30 | N[C@H](CNc1ncc(-c2ccc3c(c2)/C(=C/c2ccco2)C(=O)N3)s1)Cc1c[nH]c2ccccc12 (stereo in doubt) [Example 72, (E)- and (Z)-5-(2-((S)-2-amino-3-(1H-indol-3-yl)propylamino)thiazol-5-yl)-3-(furan-2-ylmethylene)indolin-2-one ditrifluoroacetates] |
| 5.00 to 6.00 | Cn1c(=O)[nH]c2ccc(-c3sc(NC[C@@H](N)Cc4ccc(C(F)(F)F)cc4)nc3C(F)(F)CO)cc21 [Example 136, 6-(2-((S)-2-Amino-3-(4-(trifluoromethyl)phenyl)propylamino)-4-(1,1-difluoro-2-hydroxyethyl)thiazol-5-yl)-1-methyl-1H-benzo[d]imidazol-2(3H)-one] |
| > 7.30 | N[C@H](CNc1nc(-c2ccccc2F)c(-c2ccc3cnccc3c2)s1)Cc1ccc(C(F)(F)F)cc1 [Example 105, N—((S)-2-Amino-3-(4-(trifluoromethyl)phenyl)propyl)-4-(2-fluorophenyl)-5-(isoquinolin-6-yl)thiazol-2-amine] |
| 5.00 to 6.00 | C[C@H](Nc1ncc(-c2ccc3[nH]c(=O)oc3c2)s1)[C@@H](N)Cc1ccc(C(F)(F)F)cc1 [Example 236, 6-(2-((2S,3S)-3-amino-4-(4-(trifluoromethyl)phenyl)butan-2-ylamino)thiazol-5-yl)benzo[d]oxazol-2(3H)-one] |
| 6.00 to 7.30 | N[C@H](CNc1nc(-c2cccc(F)c2)c(-c2ccc3cnccc3c2)s1)Cc1ccc(C(F)(F)F)cc1 [Example 103, N—((S)-2-amino-3-(4-(trifluoromethyl)phenyl)propyl)-4-(3-fluorophenyl)-5-(isoquinolin-6-yl)thiazol-2-amine] |
